Assays:
KAT2A = KAT2A (Homo sapiens, UniProt Q92830); assay: KAT2A degradation, Western Blot (Jess), NCI-H1048 cells; type: cell-based; design: degrader, Western blot (Jess); details: NCI-H1048 cells, KAT2A, 24 h, Western Blot, vs DMSO; read-out: KAT2A NCI-H1048 DC50
Procedure: (§1) MOLM-13 cells or NCI-H1048 cells were used for Western Blot analysis of KAT2A degradation. KAT2B degradation can be measured in a similar manner with NCI-H1048 cells.
(§2) H1048 cells were maintained at 37° C. in 5% CO2 and 90% humidity in HITES medium with 5% fetal bovine serum (FBS). HITES medium was […] with the following additions: 0.005 mg/ml Insulin, 0.01 mg/ml Transferrin, 30 nM Sodium selenite, 10 nM Hydrocortisone, 10 nM beta-estradiol, and extra 2 mM L-glutamine (for final concentration of 4.5 mM). Cells were plated in full media at 1 million cells/2 mL in a 6-well tissue culture treated plate with or without compounds for 24 h at 37° C. in 5% CO2.
(§3) MOLM-13 cells or NCI-H1048 cells were washed with PBS, then lysed with RIPA buffer containing 1×protease and phosphatase inhibitors (SantaCruz Biotechnologies Cat #sc-24948A). Protein was isolated by centrifugation at 12,000×g for 10 minutes at 4° C. and supernatant was collected. Protein was quantified via Bradford assay. Samples were diluted to 4 μg lysate in 16 μL RIPA buffer and then 4 μL of Jess Sample Buffer. Samples were heated at 95° C. for 5 minutes. Samples were loaded onto 12-230 kDa Jess™ Separation Module, 8×25 capillary cartridges (SM-W004, Biotechne). Antibodies loaded were: Primary antibody for KAT2A (GCN5L2 (C26A10) Rabbit mAb (3305, CST)) and for KAT2B (PCAF (C14G9)) Rabbit mAb (3378, CST) at 1:1000 and Anti-Rabbit Detection Module for Jess™ (Cat No #DM-001, Biotechne). Signal was detected by chemiluminescence.
(§4) DC50 values were determined from percent reduction of protein as compared to the DMSO control.

KAT2B = KAT2B (Homo sapiens, UniProt Q92831); assay: KAT2B degradation, Western Blot (Jess), NCI-H1048 cells; type: cell-based; design: degrader, Western blot (Jess); details: NCI-H1048 cells, KAT2B, 24 h, Western Blot, vs DMSO; read-out: KAT2B NCI-H1048 DC50
Procedure: as §1, §2, §3, §4

Chain of KAT2B (Q92831 whole entry): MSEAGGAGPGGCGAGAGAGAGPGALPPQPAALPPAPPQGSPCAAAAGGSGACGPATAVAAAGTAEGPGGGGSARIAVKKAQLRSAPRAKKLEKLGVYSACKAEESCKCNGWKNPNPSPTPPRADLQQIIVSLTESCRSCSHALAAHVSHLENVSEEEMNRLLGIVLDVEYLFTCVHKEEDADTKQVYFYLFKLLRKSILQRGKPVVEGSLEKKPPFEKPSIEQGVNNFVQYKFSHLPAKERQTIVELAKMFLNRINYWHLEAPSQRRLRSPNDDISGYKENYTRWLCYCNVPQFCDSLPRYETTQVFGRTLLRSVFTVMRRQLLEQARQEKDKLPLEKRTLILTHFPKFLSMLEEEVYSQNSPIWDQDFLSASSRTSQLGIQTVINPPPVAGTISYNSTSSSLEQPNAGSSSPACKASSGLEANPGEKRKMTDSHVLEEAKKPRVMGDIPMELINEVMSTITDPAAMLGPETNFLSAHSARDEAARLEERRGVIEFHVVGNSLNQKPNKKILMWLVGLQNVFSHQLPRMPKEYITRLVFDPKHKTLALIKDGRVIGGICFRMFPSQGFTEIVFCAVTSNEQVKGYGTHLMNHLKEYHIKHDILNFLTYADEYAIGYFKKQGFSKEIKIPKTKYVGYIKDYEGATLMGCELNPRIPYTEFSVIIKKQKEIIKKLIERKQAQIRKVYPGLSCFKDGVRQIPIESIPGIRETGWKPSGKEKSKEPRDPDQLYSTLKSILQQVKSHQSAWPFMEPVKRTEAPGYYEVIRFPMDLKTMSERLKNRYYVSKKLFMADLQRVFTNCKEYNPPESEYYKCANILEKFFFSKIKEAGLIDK
Chain of KAT2A (Q92830 whole entry): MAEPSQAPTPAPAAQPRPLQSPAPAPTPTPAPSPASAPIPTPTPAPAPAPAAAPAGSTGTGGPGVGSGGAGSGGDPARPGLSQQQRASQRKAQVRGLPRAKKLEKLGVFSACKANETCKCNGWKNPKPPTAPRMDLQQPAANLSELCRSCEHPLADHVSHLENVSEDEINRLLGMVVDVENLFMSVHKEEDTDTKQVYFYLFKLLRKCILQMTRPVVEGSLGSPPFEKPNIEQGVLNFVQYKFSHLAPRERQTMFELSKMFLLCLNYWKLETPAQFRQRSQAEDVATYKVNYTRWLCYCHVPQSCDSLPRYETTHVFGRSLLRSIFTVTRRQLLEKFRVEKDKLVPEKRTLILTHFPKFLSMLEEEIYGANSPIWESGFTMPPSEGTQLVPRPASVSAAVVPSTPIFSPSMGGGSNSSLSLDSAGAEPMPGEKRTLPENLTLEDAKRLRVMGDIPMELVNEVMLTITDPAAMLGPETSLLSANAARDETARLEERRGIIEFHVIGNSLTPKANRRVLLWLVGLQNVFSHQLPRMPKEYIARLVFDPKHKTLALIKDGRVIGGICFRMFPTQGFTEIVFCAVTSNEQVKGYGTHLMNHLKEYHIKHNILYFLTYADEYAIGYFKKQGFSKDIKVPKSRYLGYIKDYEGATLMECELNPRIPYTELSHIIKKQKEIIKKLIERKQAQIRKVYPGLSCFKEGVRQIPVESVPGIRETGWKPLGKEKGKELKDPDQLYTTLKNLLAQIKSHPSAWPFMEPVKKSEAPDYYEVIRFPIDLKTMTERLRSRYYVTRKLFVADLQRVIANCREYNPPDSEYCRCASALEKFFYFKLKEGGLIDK

Structure (SMILES)	DC50 (KAT2A) [nM]	DC50 (KAT2B) [nM]
CN1C[C@H](Nc2cnn(C)c(=O)c2Br)C[C@H](c2ccc(CN3CCC(c4cccc(C5CCC(=O)NC5=O)c4)C(F)(F)C3)cc2)C1 (stereo partly drawn) [Compound 386]	1 to 30	> 30
CN1C[C@H](Nc2cnn(C)c(=O)c2Br)C[C@H](c2ccc(C(=O)N3CC(c4ccc(C5CCC(=O)NC5=O)cc4)C3)cc2)C1 (stereo partly drawn) [Compound 189]	1 to 30	> 30
Cc1ncsc1-c1ccc(CNC(=O)[C@@H]2C[C@@H](O)CN2C(=O)[C@@H](NC(=O)CC2CCN(C(=O)c3ccc([C@H]4C[C@@H](Nc5cnn(C)c(=O)c5Br)CN(C)C4)cc3)CC2)C(C)(C)C)cc1 [Compound 411]	> 30	> 30
CN1C[C@H](Nc2cnn(C)c(=O)c2Cl)C[C@H](c2ccc(C(=O)N3CCC4(CC3)CCN(c3ccc(C5CCC(=O)NC5=O)c(C(F)(F)F)c3)CC4)cc2)C1 (stereo partly drawn) [Compound 222]	> 30	> 30
CN1C[C@H](Nc2cnn(C)c(=O)c2Cl)C[C@H](c2ccc(CN3CCN(c4ccc5c(C6CCC(=O)NC6=O)cncc5c4)CC3)cc2)C1 (stereo partly drawn) [Compound 381]	1 to 30	< 1
CN1C[C@H](Nc2cnn(C)c(=O)c2Cl)C[C@H](c2ccc(CN3CCN(c4cc(C5CCC(=O)NC5=O)c(F)cc4F)CC3)cc2)C1 (stereo partly drawn) [Compound 359]	> 30	> 30
CN1C[C@H](Nc2cnn(C)c(=O)c2Br)C[C@H](c2ccc(C(=O)N3CCC4(CC3)CCN(c3cnn(C5CCC(=O)NC5=O)c3)CC4)cc2)C1 (stereo partly drawn) [Compound 210]	1 to 30	< 1
CN1C[C@H](Nc2cnn(C)c(=O)c2Cl)C[C@H](c2ccc(CN3CCC(c4cccc(C5CCC(=O)NC5=O)c4)C(F)(F)C3)cc2)C1 (stereo partly drawn) [Compound 390]	1 to 30	> 30
CN1C[C@H](Nc2cnn(C)c(=O)c2Br)C[C@H](c2ccc(C(=O)N3CCC4(CC3)CCN(c3ccc5c(C6CCC(=O)NC6=O)cncc5c3)CC4)cc2)C1 (stereo partly drawn) [Compound 297]	< 1	< 1
Cc1cc(N2CCC3(CCN(C(=O)c4ccc([C@H]5C[C@@H](Nc6cnn(C)c(=O)c6C)CN(C)C5)cc4)CC3)CC2)cc(F)c1C1CCC(=O)NC1=O (stereo partly drawn) [Compound 255]	< 1	< 1
Cc1c(N[C@@H]2C[C@H](c3ccc(C(=O)N4CCC5(CC4)CCN(c4ccc(C6CCC(=O)NC6=O)cc4OC(F)(F)F)CC5)cc3)CN(C)C2)cnn(C)c1=O (stereo partly drawn) [Compound 269]	1 to 30	> 30
CN1C[C@H](Nc2cnn(C)c(=O)c2Br)C[C@H](c2ccc(C(=O)N3CCC4(CC3)CCN(c3ccn(C5CCC(=O)NC5=O)c(=O)c3)CC4)cc2)C1 (stereo partly drawn) [Compound 217]	1 to 30	> 30
CN1C[C@H](Nc2cnn(C)c(=O)c2Cl)C[C@H](c2ccc(C(=O)N3CCC(c4ccc5c(C6CCC(=O)NC6=O)nccc5c4)CC3)cc2)C1 (stereo partly drawn) [Compound 379]	< 1	> 30
CN1C[C@H](Nc2cnn(C)c(=O)c2Br)C[C@H](c2ccc(CN3CCN(C4CCC(N5CCC(=O)NC5=O)CC4)CC3)cc2)C1 (stereo partly drawn) [Compound 206]	> 30	> 30
Cc1cc(N2CCC3(CCN(Cc4ccc([C@H]5C[C@@H](Nc6cnn(C)c(=O)c6C)CN(C)C5)cc4)CC3)CC2)ccc1C1CCC(=O)NC1=O (stereo partly drawn) [Compound 339]	< 1	< 1
CN1C[C@H](Nc2cnn(C)c(=O)c2Cl)C[C@H](c2ccc(CN3CCN(c4ccc5c(C6CCC(=O)NC6=O)nccc5c4)CC3)cc2)C1 (stereo partly drawn) [Compound 383]	< 1	1 to 30

The remaining lines, values ahead:

DC50 (KAT2A) [nM]	DC50 (KAT2B) [nM]	Structure (SMILES)
< 1	> 30	CN1C[C@H](Nc2cnn(C)c(=O)c2Br)C[C@H](c2ccc(C(=O)N3CC(C#Cc4ccc(C5CCC(=O)NC5=O)cc4)C3)cc2)C1 (stereo partly drawn) [Compound 335]
< 1	1 to 30	CN1C[C@H](Nc2cnn(C)c(=O)c2Cl)C[C@H](c2ccc(C(=O)N3CCC4(CC3)CCN(c3ccc(C(=O)NC5CCC(=O)NC5=O)nc3)CC4)cc2)C1 (stereo partly drawn) [Compound 403]
< 1	1 to 30	Cc1cc(C2CCC(=O)NC2=O)ccc1N1CCC2(CCN(C(=O)c3ccc([C@H]4C[C@@H](Nc5cnn(C)c(=O)c5Br)CN(C)C4)cc3)CC2)CC1 (stereo partly drawn) [Compound 248]
< 1	1 to 30	CN1C[C@H](Nc2cnn(C)c(=O)c2Cl)C[C@H](c2ccc(C(=O)N3CCC4(CC3)CCN(c3ccc(C5CCC(=O)NC5=O)c(F)c3F)CC4)cc2)C1 (stereo partly drawn) [Compound 251]
< 1	< 1	Cc1cc(N2CCC3(CCN(C(=O)c4ccc([C@H]5C[C@@H](Nc6cnn(C)c(=O)c6Cl)CN(C)C5)cc4)CC3)CC2)cc(F)c1C1CCC(=O)NC1=O (stereo partly drawn) [Compound 288]
< 1	1 to 30	CN1C[C@H](Nc2cnn(C)c(=O)c2Cl)C[C@H](c2ccc(C(=O)N3CCC4(CC3)CCN(c3ccc(C5CCC(=O)NC5=O)cc3OC(F)(F)F)CC4)cc2)C1 (stereo partly drawn) [Compound 260]
< 1	> 30	CN1C[C@H](Nc2cnn(C)c(=O)c2Cl)C[C@H](c2ccc(C(=O)N3CCC4(CC3)CCN(c3ccc(CN5CCC(=O)NC5=O)cc3)CC4)cc2)C1 [Compound 268]
< 1	> 30	Cc1cc(N2CCC(N3CCN(C(=O)c4ccc([C@H]5C[C@@H](Nc6cnn(C)c(=O)c6Cl)CN(C)C5)cc4)CC3)CC2)ccc1C1CCC(=O)NC1=O (stereo partly drawn) [Compound 310]
< 1	1 to 30	Cc1cc(N2CCC3(CCN(C(=O)c4ccc([C@H]5C[C@@H](Nc6cnn(C)c(=O)c6C)CN(C)C5)cc4)CC3)CC2)cnc1C1CCC(=O)NC1=O (stereo partly drawn) [Compound 245]
< 1	< 1	Cc1c(N[C@@H]2C[C@H](c3ccc(C(=O)N4CCC5(CC4)CCN(c4ccc(C6CCC(=O)NC6=O)c(F)c4)CC5)cc3)CN(C)C2)cnn(C)c1=O (stereo partly drawn) [Compound 316]
< 1	< 1	CN1C[C@H](Nc2cnn(C)c(=O)c2Cl)C[C@H](c2ccc(C(=O)N3CCC4(CC3)CCN(c3ccc5c(C6CCC(=O)NC6=O)cncc5c3)CC4)cc2)C1 (stereo partly drawn) [Compound 296]
< 1	1 to 30	CN1C[C@H](Nc2cnn(C)c(=O)c2Br)C[C@H](c2ccc(CN3CCN(c4ccc5cc(C6CCC(=O)NC6=O)cnc5c4)CC3)cc2)C1 (stereo partly drawn) [Compound 299]
< 1	1 to 30	Cc1cc(N2CC3(CCN(C(=O)c4ccc([C@H]5C[C@@H](Nc6cnn(C)c(=O)c6Br)CN(C)C5)cc4)CC3)C2)ccc1C1CCC(=O)NC1=O (stereo partly drawn) [Compound 291]
< 1	1 to 30	CN1C[C@H](Nc2cnn(C)c(=O)c2Br)C[C@H](c2ccc(C(=O)N3CCC4(CC3)CCN(c3cnc(C(=O)NC5CCC(=O)NC5=O)c(F)c3)CC4)cc2)C1 (stereo partly drawn) [Compound 404]
< 1	< 1	COc1cc(N2CCC3(CCN(C(=O)c4ccc([C@H]5C[C@@H](Nc6cnn(C)c(=O)c6Br)CN(C)C5)cc4)CC3)CC2)ccc1C1CCC(=O)NC1=O (stereo partly drawn) [Compound 263]
< 1	1 to 30	Cc1c(N2CCC3(CCN(C(=O)c4ccc([C@H]5C[C@@H](Nc6cnn(C)c(=O)c6Cl)CN(C)C5)cc4)CC3)CC2)ccc(C2CCC(=O)NC2=O)c1F (stereo partly drawn) [Compound 237]
< 1	< 1	CN1C[C@H](Nc2cnn(C)c(=O)c2Br)C[C@H](c2ccc(C(=O)N3CCC4(CCC(c5ccc(C6CCC(=O)NC6=O)c(F)c5)CC4)CC3)cc2)C1 (stereo partly drawn) [Compound 325]
< 1	1 to 30	CN1C[C@H](Nc2cnn(C)c(=O)c2Br)C[C@H](c2ccc(C(=O)N3CCC(C#Cc4ccc(C5CCC(=O)NC5=O)cc4)CC3)cc2)C1 (stereo partly drawn) [Compound 334]
< 1	< 1	Cc1cc(C2CCC(=O)NC2=O)cnc1N1CCC2(CCN(C(=O)c3ccc([C@H]4C[C@@H](Nc5cnn(C)c(=O)c5Cl)CN(C)C4)cc3)CC2)CC1 (stereo partly drawn) [Compound 267]
< 1	1 to 30	Cc1cc(N2CC(N3CCN(C(=O)c4ccc([C@H]5C[C@@H](Nc6cnn(C)c(=O)c6Cl)CN(C)C5)cc4)CC3)C2)ccc1C1CCC(=O)NC1=O (stereo partly drawn) [Compound 308]
< 1	> 30	CN1C[C@H](Nc2cnn(C)c(=O)c2Cl)C[C@H](c2ccc(C(=O)N3CCC4(CC3)CN(c3ccc(C5CCC(=O)NC5=O)c(F)c3)C4)cc2)C1 (stereo partly drawn) [Compound 289]
< 1	1 to 30	COc1cc(N2CCC3(CCN(C(=O)c4ccc([C@H]5C[C@@H](Nc6cnn(C)c(=O)c6Br)CN(C)C5)cc4)CC3)CC2)cc(C)c1C1CCC(=O)NC1=O (stereo partly drawn) [Compound 287]
< 1	> 30	Cc1cc(N2CCC(N3CCN(C(=O)c4ccc([C@H]5C[C@@H](Nc6cnn(C)c(=O)c6Br)CN(C)C5)cc4)CC3)CC2)ccc1C1CCC(=O)NC1=O (stereo partly drawn) [Compound 309]
